We go through 15 compounds from ChEMBL document CHEMBL1132669, “New generation dopaminergic agents. 7. Heterocyclic bioisosteres that exploit the 3-OH-phenoxyethylamine D2 template” (Bioorg Med Chem Lett, 1999).

The target in assay [1] is T1, D(4) dopamine receptor (Homo sapiens, UniProt P21917).
T1 sequence (P21917 whole entry): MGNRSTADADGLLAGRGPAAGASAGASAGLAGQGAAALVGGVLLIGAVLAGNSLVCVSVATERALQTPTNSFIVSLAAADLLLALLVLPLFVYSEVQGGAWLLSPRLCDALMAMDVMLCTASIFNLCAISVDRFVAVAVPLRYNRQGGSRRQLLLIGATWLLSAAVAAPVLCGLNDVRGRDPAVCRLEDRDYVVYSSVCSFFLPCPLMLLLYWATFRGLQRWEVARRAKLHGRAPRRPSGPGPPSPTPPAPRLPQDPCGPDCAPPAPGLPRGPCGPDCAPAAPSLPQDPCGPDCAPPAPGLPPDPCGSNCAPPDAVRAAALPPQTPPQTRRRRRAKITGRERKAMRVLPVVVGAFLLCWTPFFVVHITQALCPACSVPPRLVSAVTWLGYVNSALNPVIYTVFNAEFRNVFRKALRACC
The assay is described as follows: Inhibition of [3H]spiperone binding to human Dopamine receptor D4.4 expressed in CHO cell membranes.

Assay [2] addresses D(2) dopamine receptor (Homo sapiens, UniProt P14416). The assay is described as follows: Inhibition of [3H]spiperone binding to human Dopamine receptor D2 in CHO cell membranes.
For assay [3], the target named is D(3) dopamine receptor (Homo sapiens, UniProt P35462). The assay is described as follows: Inhibition of [3H]spiperone binding to human Dopamine receptor D3 in CHO cell membranes.
D(3) dopamine receptor, sequence (P35462 whole entry): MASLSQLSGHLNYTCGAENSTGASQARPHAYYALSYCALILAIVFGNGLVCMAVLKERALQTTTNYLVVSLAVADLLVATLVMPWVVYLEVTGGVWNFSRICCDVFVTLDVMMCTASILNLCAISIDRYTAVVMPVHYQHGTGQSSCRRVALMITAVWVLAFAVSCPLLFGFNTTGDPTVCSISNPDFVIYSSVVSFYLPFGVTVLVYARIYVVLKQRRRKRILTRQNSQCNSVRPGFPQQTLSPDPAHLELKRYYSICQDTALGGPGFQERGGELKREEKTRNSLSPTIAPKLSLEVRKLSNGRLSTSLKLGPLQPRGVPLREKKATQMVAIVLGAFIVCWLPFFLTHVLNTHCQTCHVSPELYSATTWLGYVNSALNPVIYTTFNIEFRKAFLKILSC
In assay [4] the target is D(2) dopamine receptor (Rattus norvegicus) (UniProt P61169). The assay is described as follows: Relative binding affinity for low and hugh affinity type dopamine D2 receptors in rat striatal membranes. In kind it is cell membranes. The conditions noted are these: Striatum, Membrane.
D(2) dopamine receptor (Rattus norvegicus), sequence (P61169 whole entry): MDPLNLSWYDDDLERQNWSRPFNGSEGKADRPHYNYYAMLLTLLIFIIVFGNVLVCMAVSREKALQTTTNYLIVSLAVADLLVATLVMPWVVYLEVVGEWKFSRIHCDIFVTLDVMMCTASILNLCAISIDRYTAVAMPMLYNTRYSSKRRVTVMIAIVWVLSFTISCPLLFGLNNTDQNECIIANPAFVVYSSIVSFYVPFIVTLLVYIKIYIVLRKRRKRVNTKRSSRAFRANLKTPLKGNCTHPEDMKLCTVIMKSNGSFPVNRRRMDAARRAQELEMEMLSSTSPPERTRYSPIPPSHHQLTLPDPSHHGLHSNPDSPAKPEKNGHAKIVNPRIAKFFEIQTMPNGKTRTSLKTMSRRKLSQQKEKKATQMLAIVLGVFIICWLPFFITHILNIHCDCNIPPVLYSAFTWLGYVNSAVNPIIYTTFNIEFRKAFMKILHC
Assay [5] addresses T2, D(2) dopamine receptor (Rattus norvegicus, UniProt P61169). The assay is described as follows: Inhibition of [3H]spiperone binding to rat striatal membrane Dopamine receptor D2 low affinity without GTP and sodium.
The target in assay [6] is T2, D(2) dopamine receptor. The experiment in a line: Inhibition of [3H]quinpirole binding to rat striatal membrane Dopamine receptor D2 without GTP and sodium.
Assay [7] relates to Mus musculus. The assay is described as follows: In vivo inhibitory activity against spontaneous locomotory activity in mice administered subcutaneously. In kind it is functional. The conditions noted are these: sc.
The test system of assay [8] is Mus musculus. The experiment in a line: Inhibitory activity against Sterotypy in mice administered subcutaneously. The class given is functional. Particulars: sc.
In assay [9] the test system is Mus musculus. The experiment in a line: Inhibitory activity against apomorphine-induced climbing in mice administered subcutaneously. The class given is functional. The conditions noted are these: sc.
For assay [10], the system named is Mus musculus. The assay is described as follows: Inhibitory activity against apomorphine-induced climbing in mice administered subcutaneously at 3 mg/kg; NS is not significant. The class given is functional, organism-based. More on the design: dose 3 mg/kg.
Assay [11] concerns Mus musculus. The experiment in a line: Inhibitory activity against Sterotypy in mice administered subcutaneously at 3 mg/kg; NS is not significant. The class given is functional, organism-based. More on the design: dose 3 mg/kg.

Calls of active or inactive are those of the source. The calls are words filed in the database; no cut-off is given here.

D(2) dopamine receptor (Homo sapiens, UniProt P14416), sequence (P14416 whole entry): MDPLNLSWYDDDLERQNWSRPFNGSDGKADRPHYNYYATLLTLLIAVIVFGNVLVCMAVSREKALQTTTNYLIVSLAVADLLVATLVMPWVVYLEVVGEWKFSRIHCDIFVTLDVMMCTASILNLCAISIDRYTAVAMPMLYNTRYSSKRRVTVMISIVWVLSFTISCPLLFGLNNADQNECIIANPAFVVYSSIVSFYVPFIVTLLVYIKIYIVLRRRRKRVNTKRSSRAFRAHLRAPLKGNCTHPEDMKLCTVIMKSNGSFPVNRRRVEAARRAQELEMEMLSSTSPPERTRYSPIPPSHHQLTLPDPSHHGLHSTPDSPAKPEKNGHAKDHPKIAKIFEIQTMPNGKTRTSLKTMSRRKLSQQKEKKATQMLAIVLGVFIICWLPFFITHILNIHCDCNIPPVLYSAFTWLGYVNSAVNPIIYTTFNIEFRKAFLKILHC
T2 sequence (P61169 whole entry): as the sequence (P61169 whole entry) above

What is called Ki is the dissociation constant of the complex between target and ligand, obtained from inhibition or displacement. A lower Ki goes with higher affinity. Regarding `c1ccc(CNCCOc2cccc3[nH]ccc23)cc1`, the figures for the Ki in [1], in [2] and in assay [3] were 230 nM, 81.8 nM and 19.5 nM, respectively. Further, in assay [4], the Ratio is 4.
On to `Sc1nc2c(OCCNCc3ccccc3)cc(Cl)cc2[nH]1`, for which the Ki in assay [1] is 11.2 nM; in assay [5], 4.5 nM; in [6], 0.21 nM; in [2] it was 6.5 nM; in assay [3], 12.2 nM. Moreover, the Ratio in [4] was found to be 21.
The ED50 is the midpoint of the dose-response relation. For `FC(F)(F)c1nc2c(OCCNCc3ccccc3)cccc2[nH]1`, the inhibition constant Ki was 3.1 nM in assay [1]; 1.9 nM in [5]; 0.18 nM in assay [6]; 1.75 nM in assay [2]; 1.15 nM in assay [3]. Besides, the values for the median effective dose (ED50) in [7], in [8] and in assay [9] were 0.007 mg/kg, 0.33 mg/kg and 0.09 mg/kg, respectively. The Ratio in [4] was 10.
For the compound `c1ccc(CNCCOc2cccc3nc[nH]c23)cc1`, the Ki is 51.6 nM in assay [1]; 128 nM in [5]; 9.8 nM in [6]; 85.6 nM in assay [2]; 67.2 nM in assay [3].
For `Oc1nc2c(OCCNCc3ccccc3)cc(Cl)cc2[nH]1`, the Ratio in assay [4] stood at 11.
On to `O=C1Cc2c(cccc2OCCNCc2ccccc2)N1`, for which the Ki in assay [1] came to 10 nM; in assay [2], 4.25 nM; in assay [3], 2.8 nM. In addition, the Ratio in [4] came out at 54.
`Sc1nc2c(OCCNCc3ccccc3)cccc2[nH]1`: the Ratio in [4] was 14.
Turning to `S=c1[nH]c2cccc(OCCNCc3ccccc3)c2[nH]1`, the Ki in [1] is 3.8 nM; in assay [5], 2.6 nM; in assay [6], 0.18 nM; in assay [2], 3 nM; in [3], 2 nM.
With `Cc1nc2c(OCCNCc3ccccc3)cccc2[nH]1`, the inhibitory constant (Ki) in assay [1] worked out at 61.1 nM; in assay [5], 26.6 nM; in [6], 4.4 nM; in assay [2], 15.2 nM; in assay [3], 94.6 nM. Besides, the Ratio in assay [4] worked out at 6.
Turning to `O=c1[nH]c2cc(Cl)cc(OCCNCc3ccccc3)c2[nH]1`, the Ki amounted to 15.8 nM in assay [1]; 2.7 nM in assay [5]; 0.25 nM in [6]; 2.6 nM in assay [2]; 7.4 nM in assay [3].
Take `c1ccc(CNCCOc2cccc3[nH]cnc23)cc1`: the Ratio in assay [4] was 13.
For the compound `c1ccc(CNCCOc2cccc3[nH]ncc23)cc1`, the Ki turned out to be 315 nM in assay [1]; 35.9 nM in assay [5]; 1.1 nM in assay [6]; 79.8 nM in [2]; 8.8 nM in assay [3]. Also, in [4], the Ratio was determined as 33.
Turning to `FC(F)(F)c1nc2c(OCCNCc3ccccc3)cc(Cl)cc2[nH]1`, the Ki in assay [1] stood at 7 nM; in [5] it was 11.6 nM; in [6] it was 0.71 nM; in assay [2], 32.4 nM; in [3], 41.8 nM. The 50% effect level in [7] (ED50) was put at a dose of 0.35 mg/kg. The ED50 result in [10] and in [11] was “inactive” in each case. For the same compound, the Ratio in [4] is 16.
In the case of `Oc1cccc(OCCNCc2ccccc2)c1`, the Ratio in assay [4] amounted to 28.
Regarding `O=c1[nH]c2cccc(OCCNCc3ccccc3)c2[nH]1`, the Ki was 6.3 nM in [1], 4.7 nM in [5] and 0.18 nM in [6].
